Experimental data taken from patent US11261186B2, “Biaryl derivative as GPR120 agonist” (LG CHEM, LTD., priority 2014, dated 2022).

Molecular target: T1, hGPR120 (Homo sapiens, UniProt Q5NUL3)
T1 construct: expressed in transfected cells; host or cells: CHO-K1
T1 sequence (Q5NUL3 1-361): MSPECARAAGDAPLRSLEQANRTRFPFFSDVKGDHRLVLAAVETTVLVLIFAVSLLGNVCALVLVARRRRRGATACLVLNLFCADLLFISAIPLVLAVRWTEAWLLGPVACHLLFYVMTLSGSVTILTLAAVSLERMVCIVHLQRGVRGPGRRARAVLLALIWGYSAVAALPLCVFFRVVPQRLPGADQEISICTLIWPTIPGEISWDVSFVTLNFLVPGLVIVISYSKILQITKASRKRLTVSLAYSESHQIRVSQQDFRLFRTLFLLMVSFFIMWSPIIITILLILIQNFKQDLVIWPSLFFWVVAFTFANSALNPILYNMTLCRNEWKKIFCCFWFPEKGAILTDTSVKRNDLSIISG
Assay: Measurement of Activity of GPR120 Agonist (Cell-Based Assay), Calcium 5 dye fluorescence
Details: CHO-K1 cells expressing Ga16 and hGPR120
Protocol: CHO-K1 cells expressing Ga16 and hGPR120 were dispensed into each well of a 96-well plate (3×10^4 cells/100 μl/well) and then incubated in 5% CO2, 37° C. incubator for 18 hours. Each well was treated with 100 μl of Calcium 5 dye (Molecular Devices) solution including 2% DMSO and then incubated in 5% CO2, 37° C. incubator for 1 hour. Serially diluted GPR120 agonists were prepared to a final concentration of 0.5% DMSO in a 96-well plate. Each well was treated with 50 μl of the agonist compounds using Plexstation II, and then fluorescence was measured at Ex 485 nm and Em 525 nm.
Fluorescence increased by the serially diluted GPR120 agonists is calculated as a relative percent (%) value based on the fluorescence represented by the treatment of 1% DMSO only. […] The calculation of measurement was carried out by using statistical software (Prizm).
Activity is denoted based on the following criteria: […]

EC50 [nM]	Structure (SMILES)
200 to 2000	O=C(O)CCCOc1c(F)cc(-c2cccc(COCC3CC3)n2)cc1F [Example 388, 4-[4-[6-(cyclopropylmethoxymethyl)-2-pyridyl]-2,6-difluoro-phenoxy]butanoic acid]
< 200	CCCSc1ncccc1-c1cc(F)c(CCCCC(=O)O)c(F)c1 [Example 31, 5-[2,6-difluoro-4-(2-propylsulfanyl-3-pyridyl)phenyl]pentanoic acid]
< 200	CC(C)Sc1ncccc1-c1cc(F)c(NCCCCC(=O)O)c(F)c1 [Example 97, 5-[2,6-difluoro-4-(2-isopropylsulfanyl-3-pyridyl)anilino]pentanoic acid]
< 200	O=C(O)CCCCNc1c(F)cc(-c2cccnc2OCC2CC2)cc1F [Example 99, 5-[4-[2-(cyclopropylmethoxy)-3-pyridyl]-2,6-difluoro-anilino]pentanoic acid]
< 200	CCOc1cncc(-c2cc(F)c(N3CCC(CC(=O)O)CC3)c(F)c2)n1 [Example 338, 2-[1-[4-(6-ethoxypyrazin-2-yl)-2,6-difluoro-phenyl]-4-piperidyl]acetic acid]
200 to 2000	COc1ccc(-c2ccc3c(c2)CCC(CCC(=O)O)S3)c2c1OC(C)(C)C2 (stereo not drawn) [Example 274, 3-[6-(7-methoxy-2,2-dimethyl-2,3-dihydro-benzofuran-4-yl)-thiochroman-2-yl]-propionic acid]
< 200	CCCOc1cccc(-c2cc(F)c(OCc3cc(O)no3)c(F)c2)n1 [Example 73, 5-[[2,6-difluoro-4-(6-propoxy-2-pyridyl)phenoxy]methyl]isoxazol-3-ol]
200 to 2000	O=C(O)CC1CCN(c2c(F)cc(-c3cccc(C4CCC4)n3)cc2F)CC1 [Example 373, 2-[1-[4-(6-cyclobutyl-2-pyridyl)-2,6-difluoro-phenyl]-4-piperidyl]acetic acid]
200 to 2000	CC1(C)Cc2cc(Cl)cc(-c3ccc4c(c3)CCC(CCC(=O)O)S4)c2O1 (stereo not drawn) [Example 282, 3-[6-(5-chloro-2,2-dimethyl-2,3-dihydro-benzofuran-7-yl)-thiochroman-2-yl]-propionic acid]
< 200	O=C(O)CCCOc1c(F)cc(-c2ccc(F)c(OCC3CC3)c2)cc1F [Example 527, 4-(3′-cyclopropylmethoxy-3,5,4′-trifluoro-biphenyl-4-yloxy)-butyric acid]
200 to 2000	CC(C)CNc1ccnc(-c2cc(F)c(N3CCC(CC(=O)O)CC3)c(F)c2)n1 [Example 360, 2-[1-[2,6-difluoro-4-[4-(isobutylamino)pyrimidin-2-yl]phenyl]-4-piperidyl]acetic acid]
< 200	COc1ccc(-c2cc(F)c(C(C)CCCC(=O)O)c(F)c2)cc1OCC1CC1 (stereo not drawn) [Example 412, 5-(3′-cyclopropylmethoxy-3,5-difluoro-4′-methoxy-biphenyl-4-yl)-hexanoic acid]
< 200	Oc1cc(COc2c(F)cc(-c3cccnc3SC3CCC3)cc2F)on1 [Example 61, 5-[[4-(2-cyclobutylsulfanyl-3-pyridyl)-2,6-difluoro-phenoxy]methyl]isoxazol-3-ol]
200 to 2000	CN(CCCC(=O)O)c1c(F)cc(-c2occc2COCC2CC2)cc1F [Example 470, 4-[4-[3-(cyclopropylmethoxymethyl)-2-furyl]-2,6-difluoro-N-methyl-anilino]butanoic acid]
< 200	O=C(O)CCCCc1c(F)cc(-c2cccc3c2OC(F)(F)O3)cc1F [Example 34, 5-[4-(2,2-difluoro-benzo[1,3]dioxol-4-yl)-2,6-difluoro-phenyl]pentanoic acid]
2000 to 20000	N#Cc1ccc2c(ccn2-c2cc(F)c(OCCCC(=O)O)c(F)c2)c1 [Example 469, 4-[4-(5-cyanoindol-1-yl)-2,6-difluoro-phenoxy]butanoic acid]
< 200	CC(C)Sc1ncccc1-c1cc(F)c(N2CCC(CCC(=O)O)CC2)c(F)c1 [Example 126, 3-[1-[2,6-difluoro-4-(2-isopropylsulfanyl-3-pyridyl)phenyl]-4-piperidyl]propanoic acid]
200 to 2000	CC1(C)Cc2cc(Cl)cc(-c3cc(F)c(OCCCC(=O)O)c(F)c3)c2O1 [Example 253, 4-[4-(5-chloro-2,2-dimethyl-2,3-dihydro-benzofuran-7-yl)-2,6-difluoro-phenoxy]-butyric acid]
2000 to 20000	O=C(O)CCc1ccc2cc(-c3cccc(SC4CCCC4)n3)ccc2c1 [Example 143, 3-[6-(6-cyclopentylsulfanyl-pyridin-2-yl)-naphthalen-2-yl]-propanoic acid]
< 200	CCCSc1ncccc1-c1cc(F)c(OCc2cc(O)no2)c(F)c1 [Example 66, 5-[[2,6-difluoro-4-(2-propylsulfanyl-3-pyridyl)phenoxy]methyl]isoxazol-3-ol]
< 200	CC(CCCC(=O)O)c1c(F)cc(-c2cccc(OCC3CC3)c2)cc1F (stereo not drawn) [Example 413, 5-(3′-cyclopropylmethoxy-3,5-difluoro-biphenyl-4-yl)-hexanoic acid]
< 200	CCOc1cc(C)nc(-c2cc(F)c(N3CCC(CC(=O)O)CC3)c(F)c2)n1 [Example 349, 2-[1-[4-(4-ethoxy-6-methyl-pyrimidin-2-yl)-2,6-difluoro-phenyl]-4-piperidyl]acetic acid]
200 to 2000	CC(C)Nc1cncc(-c2cc(F)c(N3CCC(CC(=O)O)C3)c(F)c2)n1 (stereo not drawn) [Example 505, 2-{1-[2,6-difluoro-4-(6-isopropylamino-pyrazin-2-yl)phenyl]pyrrolidin-3-yl}acetic acid]
< 200	C[C@@H](CCCC(=O)O)c1c(F)cc(-c2cccnc2SC2CCC2)cc1F [Example 229, (S)-5-[4-(2-cyclobutylsulfanyl-pyridin-3-yl)-2,6-difluoro-phenyl]-hexanoic acid]
2000 to 20000	O=C(O)Cc1cnn(-c2ccc(-c3cccnc3SC3CCC3)cc2)c1 [Example 93, 2-[1-[4-(2-cyclobutylsulfanyl-3-pyridyl)phenyl]pyrazol-4-yl]acetic acid]

Structure (SMILES)	EC50 [nM]
CC(C)COc1cncc(-c2cc(F)c(N3CCC(CC(=O)O)CC3)c(F)c2)n1 [Example 342, 2-[1-[2,6-difluoro-4-(6-isobutoxypyrazin-2-yl)phenyl]-4-piperidyl]acetic acid]	< 200
O=C(O)CC1CCN(c2c(F)cc(-c3cc(C(F)(F)F)cc(OC4CCC4)n3)cc2F)CC1 [Example 614, {1-[4-(6-cyclobutoxy-4-trifluoromethyl-pyridin-2-yl)-2,6-difluoro-phenyl]-piperidin-4-yl}-acetic acid]	2000 to 20000
O=C(O)C1CC1COc1c(F)cc(-c2cccc(OC3CCC3)n2)cc1Cl (stereo not drawn) [Example 554, 2-[2-chloro-4-(6-cyclobutoxy-pyridin-2-yl)-6-fluoro-phenoxymethyl]-cyclopropanecarboxylic acid]	< 200
CC(CCCC(=O)O)c1c(F)cc(-c2cccc(OC3CCC3)n2)cc1F (stereo not drawn) [Example 41, 5-[4-(6-cyclobutoxy-2-pyridyl)-2,6-difluoro-phenyl]hexanoic acid]	< 200
O=C(O)CCCC(F)(F)c1ccc(-c2cc(F)cc(OC3CCC3)c2)cc1 [Example 414, 5-(5′-cyclobutoxy-3′-fluoro-biphenyl-4-yl)-5,5-difluoro-pentanoic acid]	< 200
O=C(O)CCc1ccc2cc(-c3cccc(OC4CCC4)c3)ccc2c1 [Example 147, 3-[6-(3-cyclobutoxy-phenyl)-naphthalen-2-yl]-propanoic acid]	< 200
O=C(O)C[C@H]1CCN(c2c(F)cc(-c3cccnc3OC3CCCC3)cc2F)C1 [Example 135, 2-[(3R)-1-[4-[2-(cyclopentoxy)-3-pyridyl]-2,6-difluoro-phenyl]pyrrolidin-3-yl]acetic acid]	< 200
CC(C)Sc1ncccc1-c1ccc(C(C)(C)CCCC(=O)O)cc1 [Example 159, 5-[4-(2-isopropylsulfanyl-pyridin-3-yl)-phenyl]-5-methyl-hexanoic acid]	< 200
O=C(O)CCC1CCc2cc(-c3cccc(OC4CCC4)n3)ccc2S1 (stereo not drawn) [Example 441, 3-[6-[6-(cyclobutoxy)-2-pyridyl]thiochroman-2-yl]propanoic acid]	< 200
O=C(O)CC1CCN(c2c(F)cc(-c3csc(OC4CCC4)n3)cc2F)C1 (stereo not drawn) [Example 582, {1-[4-(2-cyclobutoxy-thiazol-4-yl)-2,6-difluoro-phenyl]-pyrrolidin-3-yll}-acetic acid]	200 to 2000
CC(CCCC(=O)O)c1ccc(-c2cccc(OC3CCC3)n2)cc1 (stereo not drawn) [Example 40, 5-[4-(6-cyclobutoxy-2-pyridyl)-phenyl]hexanoic acid]	< 200
O=C(O)CCCCc1c(F)cc(-c2cccc(OC3CCC3)n2)cc1F [Example 32, 5-[4-(6-cyclobutoxy-2-pyridyl)-2,6-difluoro-phenyl]pentanoic acid]	< 200
O=C(O)CC1CCN(c2c(F)cc(-c3cccc(OC4CCCC4)n3)cc2F)CC1 [Example 299, 2-[1-[4-[6-(cyclopentoxy)-2-pyridyl]-2,6-difluoro-phenyl]-4-piperidyl]acetic acid]	200 to 2000
O=C(O)CC1CCN(c2c(F)cc(-c3cccc(OC4CCC4)c3)cc2F)CC1 [Example 300, 2-[1-[4-[3-(cyclobutoxy)phenyl]-2,6-difluoro-phenyl]-4-piperidyl]acetic acid]	200 to 2000
